Measurements taken from patent publication US5625043A, “Anthracyclines with unusually high activity against cells resistant to doxorubicin and its analogs” (Priebe; Waldemar, priority 1995, dated 1997).
In brackets after ≈: the same amount, converted by molar mass. Entries after “also recorded” stand apart in the source; their conditions may differ. Like-named read-outs stand apart in the source and are kept apart here.

What was measured:
[1] = system: KB V1 cells; assay: MTT cytotoxicity assay, DOX-resistant (MDR) KB V1 cells; type: cell-based, human; conditions: for IC50: Homo sapiens; for cytotoxicity (in words): KB V1 (MDR, DOX-resistant); for RI (ID50 KB V1/ID50 KB 3-1): KB V1 versus KB 3-1
Experimental: The assay was performed as follows:
Doxorubicin was obtained from the Hospital Pharmacy (Adriamycin, Adria Laboratories, Columbus, Ohio). KB 3-1 human carcinoma and KB V1 were obtained from Dr. Michael M. Gottesman at the National Cancer Institute. […] KB 3-1 and KB V1 cells were grown in monolayers in Dulbecco's modified Eagle's medium containing 10% fetal bovine serum. For KB V1 cells, vinblastine was added to the culture medium (final concentration 0.5 μg/ml).
The MTT dye was obtained from Sigma Chemical Company, St. Louis, Mo. Cells were plated in 96-well microassay culture plates (10^4 cells/well) and grown for 24 h at 37° C. in a 5% CO2 incubator. Drugs were then added to the wells to achieve a final drug concentration ranging from 0.1 to 50 μg/ml (eight wells were used for each different concentration). The same volume of 0.9% NaCl solution in water with 1% DMSO was added to control wells. Wells containing culture medium alone without cells were used as blanks. The plates were incubated at 37° C. in a 5% CO2 incubator for 1 h (KB cells). When incubation was complete, 15 μl of stock solution of MTT dye in 0.9% NaCl solution in water was added to each well to achieve a final dye concentration of 0.5 mg/ml. The plate was incubated at 37° C. in a 5% CO2 incubator for 4 h. […] Complete solubilization was achieved by placing the plate in a mechanical shaker for 30 minutes at room temperature. The optical density of each well was then measured with a microplate spectrophotometer at a wavelength of 600 nm. The percent cell viability was calculated by the following equation: [formula]
(§1) The percent cell viability values obtained were plotted against the drug concentrations used, and the ID50 was calculated from the curve. Experiments were repeated at least three time.

[2] = system: tumor cells resistant to doxorubicin, AD 198, and vinblastine; assay: Cytotoxicity against drug-resistant tumor cells (general statement); type: cell-based
[3] = system: J774.2 cells; assay: Cytotoxicity against J774.2 cells; type: cell-based, murine; conditions: for IC50: Mus musculus
[4] = system: J7/40V cells; assay: Cytotoxicity against vinblastine-resistant J7/40V cells; type: cell-based, murine; conditions: for RI J7/40V: J7/40V versus J774.2; for cytotoxicity (in words): vinblastine-resistant; for IC50: Mus musculus
[5] = system: J7/A300 cells; assay: Cytotoxicity against AD 198-resistant J7/A300 cells; type: cell-based, murine; conditions: for cytotoxicity (in words): J7/A300, AD 198-resistant; for RI J7/A300: J7/A300 versus J774.2; for IC50: Mus musculus
[6] = system: P388 (S) cells; assay: MTT cytotoxicity assay, AD 198-sensitive P388 (S) cells; type: cell-based, murine; conditions: Mus musculus, ± S.E., read-out: ID50 (the source's name)
Experimental: (§2) In vitro drug cytotoxicites against KB 3-1 and KB V1 cells were assessed by using the MTT reduction assay, as previously reported (Green et al., J. Immunol. Methods., 70:257, 1984). The MTT dye was obtained from Sigma Chemical Company, St. Louis, Mo. Cells were plated in 96-well microassay culture plates (10^4 cells/well) and grown for 24 h at 37° C. in a 5% CO2 incubator. Drugs were then added to the wells to achieve a final drug concentration ranging from 0.1 to 50 μg/ml (eight wells were used for each different concentration). The same volume of 0.9% NaCl solution in water with 1% DMSO was added to control wells. Wells containing culture medium alone without cells were used as blanks. The plates were incubated at 37° C. in a 5% CO2 incubator for 1 h (KB cells). When incubation was complete, 15 μl of stock solution of MTT dye in 0.9% NaCl solution in water was added to each well to achieve a final dye concentration of 0.5 mg/ml. The plate was incubated at 37° C. in a 5% CO2 incubator for 4 h. […] The optical density of each well was then measured with a microplate spectrophotometer at a wavelength of 600 nm. The percent cell viability was calculated by the following equation: [formula]
(§3) The percent cell viability values obtained were plotted against the drug concentrations used, and the ID50 was calculated from the curve. […]

[7] = system: KB 3-1 cells; assay: MTT cytotoxicity assay, DOX-sensitive KB 3-1 cells; type: cell-based; conditions: Homo sapiens
Experimental: An MTT assay was performed to determine the cytotoxicity of DOX, WP 546, and WP 549 to KB 3-1 (DOX-sensitive) and KB V1 (DOX-resistant) cells. The assay was performed as follows:
Doxorubicin was obtained from the Hospital Pharmacy (Adriamycin, Adria Laboratories, Columbus, Ohio). KB 3-1 human carcinoma and KB V1 were obtained from Dr. Michael M. Gottesman at the National Cancer Institute. KB V1 cells have the MDR phenotype and express glycoprotein P-170 in their membrane (Akiyama et al., Somat. Cell. Mol. Genet., 11:117, 1985; Shen et al., J. Biol. Chem., 261:7762, 1986.). KB 3-1 and KB V1 cells were grown in monolayers in Dulbecco's modified Eagle's medium containing 10% fetal bovine serum. For KB V1 cells, vinblastine was added to the culture medium (final concentration 0.5 μg/ml).
as §2, with “mg/ml.” for “mg/ml. The plate was incubated at 37° C. in a 5% CO2 incubator for 4 h.”
as §3

[8] = system: P388 (R) cells; assay: MTT cytotoxicity assay, AD 198-resistant P388 (R) cells; type: cell-based, murine; conditions: for IC50: Mus musculus, P388 (R), ± S.E., read-out: ID50 (the source's name); for RI: P388 (R) versus P388 (S); for cytotoxicity (in words): P388 AD 198-resistant
Experimental: In vitro drug cytotoxicites against KB 3-1 and KB V1 cells were assessed by using the MTT reduction assay, as previously reported (Green et al., J. Immunol. Methods., 70:257, 1984). The MTT dye was obtained from Sigma Chemical Company, St. Louis, Mo. Cells were plated in 96-well microassay culture plates (10^4 cells/well) and grown for 24 h at 37° C. in a 5% CO2 incubator. Drugs were then added to the wells to achieve a final drug concentration ranging from 0.1 to 50 μg/ml (eight wells were used for each different concentration). The same volume of 0.9% NaCl solution in water with 1% DMSO was added to control wells. Wells containing culture medium alone without cells were used as blanks. The plates were incubated at 37° C. in a 5% CO2 incubator for 1 h (KB cells). When incubation was complete, 15 μl of stock solution of MTT dye in 0.9% NaCl solution in water was added to each well to achieve a final dye concentration of 0.5 mg/ml. The plate was incubated at 37° C. in a 5% CO2 incubator for 4 h. Subsequently, 100 μl of medium was removed from each well from the upper ]K<id,KD layer, and 100 μl of DMSO was added to solubilize the MTT formazan. Complete solubilization was achieved by placing the plate in a mechanical shaker for 30 minutes at room temperature. The optical density of each well was then measured with a microplate spectrophotometer at a wavelength of 600 nm. The percent cell viability was calculated by the following equation: [formula]
as §1
An MTT assay to determine the cytotoxicity of WP 546 and WP 549 to AD 198-resistant {P 388 (R)} and AD 198-sensitive {P388 (S)} cells was performed in a manner similar to that described above.

[9] = cited from earlier work
[10] = versus same dose by bolus injections; cited from earlier work
[11] = KB V1 (R), MTT, 1 h drug incubation, read-out: ID50 (the source's name)
[12] = J774.2, read-out: ID50 (the source's name)
[13] = J7/40V, read-out: ID50 (the source's name)
[14] = J7/A300, read-out: ID50 (the source's name)
[15] = KB 3-1 (S), MTT, 1 h drug incubation, read-out: ID50 (the source's name)

## COc1cccc2c1C(=O)c1c(O)c3c(c(O)c1C2=O)C[C@@](O)(C(=O)CO)C[C@@H]3O[C@H]1C[C@H](OCc2ccccc2)[C@H](O)[C@H](C)O1 [WP 546, 7-O-(3-O-benzyl-2,6-dideoxy-α-L-lyxo-hexopyranosyl)adriamycinone]
[1]; [11]
  IC50: 4.1 µg/mL (≈ 6.46 µM)
[1]
  cytotoxicity (in words): unexpectedly more cytotoxic against MDR cells than against parent cells; also recorded: ability to kill DOX-resistant and vinblastine resistant cells; also recorded: shown to kill KB V1 cells
  RI (ID50 KB V1/ID50 KB 3-1): 0.9
[2]
  cytotoxicity (in words): surprisingly broad cytotoxicity; also recorded: unexpected cytotoxic activity; also recorded: very high cytotoxicity
[2]; listed as 3'-O-benzyl-doxorubicin
  cytotoxicity (in words): surprisingly similar in DOX-sensitive and DOX-resistant cell lines
[3]; J774.2
  cytotoxicity (in words): shown to kill KB V1 cells and J774.2 cells
[3]; [12]
  IC50: 1100 nM
[4]
  RI J7/40V: 2.2
[4]; J7/40V
  cytotoxicity (in words): shown to have cytotoxic effects
[4]; [13]
  IC50: 2350 nM
[5]
  cytotoxicity (in words): demonstrated cytotoxicity
  RI J7/A300: 2.2
[5]; [14]
  IC50: 2430 nM
[6]
  IC50: 920 ± 360 nM
[7]; [15]
  IC50: 4.6 µg/mL (≈ 7.25 µM)
[8]
  IC50: 690 ± 230 nM
  RI: 0.8
  cytotoxicity (in words): more cytotoxic towards cells selected for the resistance than that of a wild type; also recorded: demonstrated cytotoxicity

## CC[C@]1(O)C[C@@H]2CN(CCc3c([nH]c4ccccc34)[C@@](C(=O)OC)(c3cc4c(cc3OC)N(C)[C@H]3[C@@](O)(C(=O)OC)[C@H](OC(C)=O)[C@]5(CC)C=CCN6CC[C@]43[C@@H]65)C2)C1 [vinblastine, reference compound]
[4]; J7/40V selected for resistance to vinblastine
  resistance of cell line to the selecting drug: 120 -fold

## CCCCC(=O)OCC(=O)[C@]1(O)Cc2c(O)c3c(c(O)c2[C@@H](O[C@H]2C[C@H](OCc4ccccc4)[C@H](O)[C@H](C)O2)C1)C(=O)c1c(OC)cccc1C3=O [WP 549, 7-O-(3-O-benzyl-2,6-dideoxy-α-L-lyxo-hexopyranosyl)-14-O-valeroyl-adriamycinone]
[1]; [11]
  IC50: 4.7 µg/mL (≈ 6.54 µM)
[1]
  cytotoxicity (in words): unexpectedly more cytotoxic against MDR cells than against parent cells; also recorded: ability to kill DOX-resistant and vinblastine resistant cells; also recorded: shown to kill KB V1 cells
  RI (ID50 KB V1/ID50 KB 3-1): 0.5
[2]
  cytotoxicity (in words): surprisingly broad cytotoxicity; also recorded: unexpected cytotoxic activity; also recorded: very high cytotoxicity
[3]; J774.2
  cytotoxicity (in words): shown to kill KB V1 cells and J774.2 cells
[3]; [12]
  IC50: 1430 nM
[4]
  RI J7/40V: 2.3
[4]; J7/40V
  cytotoxicity (in words): shown to have cytotoxic effects
[4]; [13]
  IC50: 3150 nM
[5]
  cytotoxicity (in words): demonstrated cytotoxicity
  RI J7/A300: 1.9
[5]; [14]
  IC50: 2770 nM
[6]
  IC50: 1410 ± 230 nM
[7]; [15]
  IC50: 8.9 µg/mL (≈ 12.4 µM)
[8]
  IC50: 730 ± 80 nM
  RI: 0.5
  cytotoxicity (in words): more cytotoxic towards cells selected for the resistance than that of a wild type; also recorded: demonstrated cytotoxicity

## COc1cccc2c1C(=O)c1c(O)c3c(c(O)c1C2=O)C[C@@](O)(C(C)=O)C[C@@H]3O[C@H]1C[C@H](N)[C@H](O)[C@H](C)O1 [daunorubicin]
[9]; in vivo
  cardiomyopathy: unusual cardiomyopathy, the occurrence of which is related to the total dose of the drug; it is often irreversible

## COc1cccc2c1C(=O)c1c(O)c3c(c(O)c1C2=O)C[C@@](O)(C(=O)CO)C[C@@H]3O[C@H]1C[C@H](N)[C@H](O)[C@H](C)O1 [Doxorubicin, doxorubicin]
[1]; KB-V1, 1 h, read-out: ID50
  IC50: 64 µg/mL (≈ 118 µM)
[1]
  RI (ID50 KB V1/ID50 KB 3-1): 58.2
[3]; J774.2, read-out: ID50
  IC50: 24 nM
[10]
  efficacy of 96-hr continuous infusion: as effective as
  toxicity of 96-hr continuous infusion: much less toxic
[4]
  RI J7/40V: 31
[4]; read-out: ID50
  IC50: 755 nM
[5]
  RI J7/A300: 24
[5]; read-out: ID50
  IC50: 586 nM
[9]; in vivo
  adverse systemic effects: acute myelosuppression, cumulative cardiotoxicity, and gastrointestinal toxicity
[9]; related to total dose
  cardiomyopathy: unusual cardiomyopathy, the occurrence of which is related to the total dose of the drug; it is often irreversible
[7]; KB 3-1, 1 h, read-out: ID50
  IC50: 1.1 µg/mL (≈ 2.02 µM)
